One molecule from US11504434B2, “Compositions and methods for targeted delivery of therapeutic and/or diagnostic agents” (THE PENN STATE RESEARCH FOUNDATION, priority 2016, dated 2022) can be followed below.

In data set [1] the test system is 1205Lu cells. In words: CCK-8 cell viability, 1205Lu. The class given is cell-based, human. How it is done:
(§1) Pharmacological Studies. First, free PLX4032 toxicity and selectivity were confirmed by adding PLX4032 solutions at different concentrations into 96 well plates with THP-1, 1205Lu and WM35 cells separately (cell seeding density=5,000 cells/well). After 24 hrs incubation, the cells were washed with PBS twice and supplemented with 10 μl CCK-8 in 100 μl RPM-1640 medium in each well. After 2 hrs incubation, the absorbance at 450 nm of each well was measured by a micro-plate reader (TECAN infinite M200 PRO) and converted to the cell viability by normalized to control (tissue culture plates). Next, MTP-BPLP-PLA nanoparticles with and without PLX4032 loaded were dispersed in RPMI-1640 medium in various concentrations, followed by incubation with THP-1, 1205lu and WM35 cells (2,000 cells/well) separately in same conditions for 7 days. At last, MTP-BPLP-PLA-PLX4032 loaded THP-1 cells and pristine THP-1 cells were seeded with 1205lu or WM35 cells (2,000 cells/well) together with different ratios for 7 days, respectively. The cell viabilities were tested by CCK-8 assays as well.

Data set [2] deals with WM35 cells. As to the kind of experiment: CCK-8 cell viability, WM35. The class given is cell-based, human. As to the method:
as §1

For data set [3], the system named is THP-1 cells. As to the kind of experiment: CCK-8 cell viability, THP-1. The class given is cell-based. The settings on record: free drug, up to 100 μg/ml, 24 hrs. How it is done:
as §1

Setting [4] is: PLX4032 concentration higher than 5 μg/ml, 24 hrs.

In the case of `CCCS(=O)(=O)Nc1ccc(F)c(C(=O)c2c[nH]c3ncc(-c4ccc(Cl)cc4)cc23)c1F` [PLX4032], the “free PLX4032 toxicity to 1205Lu” value in data set [1] (50 ng/ml, 24 hrs incubation) is “selectively killed”. The “kill of melanomas (1205Lu)” value in data set [1] (setting [4]) was about 100%. The “free PLX4032 toxicity to WM35” value in data set [2] (50 ng/ml, 24 hrs incubation) is reported as “selectively killed”. Besides, the “kill of melanomas (WM35)” value in data set [2] (setting [4]) is about 100%. Also, in data set [3], the “THP-1 cell viability reduction” value is reported as “no significant viability reduction”.
